Test results from ChEMBL document CHEMBL4308841, “Synthesis, in vitro antiproliferative activity, and kinase inhibitory effects of pyrazole-containing diarylureas and diarylamides” (Eur J Med Chem, 2018).

How the values were obtained:
NCI-H23 = assay: Growth inhibition of human NCI-H23 cells incubated for 48 hrs by sulforhodamine B assay; assay type: functional, cell-based; conditions: NCI-H23, 48 h
SF-539 = assay: Growth inhibition of human SF539 cells incubated for 48 hrs by sulforhodamine B assay; assay type: functional, cell-based; conditions: SF-539, 48 h
UACC-257 = assay: Growth inhibition of human UACC257 cells incubated for 48 hrs by sulforhodamine B assay; assay type: functional, cell-based; conditions: UACC-257, 48 h
OVCAR-8 = assay: Growth inhibition of human OVCAR8 cells incubated for 48 hrs by sulforhodamine B assay; assay type: functional, cell-based; conditions: OVCAR-8, 48 h
NCI/ADR-RES = assay: Growth inhibition of human NCI/ADR-RES cells incubated for 48 hrs by sulforhodamine B assay; assay type: functional, cell-based
UO-31 = assay: Growth inhibition of human UO31 cells incubated for 48 hrs by sulforhodamine B assay; assay type: functional, cell-based; conditions: UO-31, 48 h
DU-145 = assay: Growth inhibition of human DU145 cells incubated for 48 hrs by sulforhodamine B assay; assay type: functional, cell-based; conditions: DU-145, 48 h
BT-549 [1] = assay: Growth inhibition of human BT549 cells incubated for 48 hrs by sulforhodamine B assay; assay type: functional, cell-based; conditions: BT-549, 48 h
MOLT-4 = assay: Growth inhibition of human MOLT4 cells assessed as cell growth at 0.01 uM incubated for 48 hrs by sulforhodamine B assay relative to control; assay type: functional; conditions: MOLT-4, 48 h, read-out: Activity
NCI-H522 = assay: Growth inhibition of human NCI-H522 cells assessed as cell growth at 0.01 uM incubated for 48 hrs by sulforhodamine B assay relative to control; assay type: functional; conditions: NCI-H522, 48 h, read-out: Activity
SK-MEL-28 [2] = assay: Growth inhibition of human SK-MEL-28 cells assessed as cell growth at 0.01 uM incubated for 48 hrs by sulforhodamine B assay relative to control; assay type: functional; conditions: SK-MEL-28, 48 h, read-out: Activity
OVCAR-3 [3] = assay: Growth inhibition of human OVCAR3 cells assessed as cell growth at 0.01 uM incubated for 48 hrs by sulforhodamine B assay relative to control; assay type: functional; conditions: OVCAR-3, 48 h, read-out: Activity
ACHN = assay: Growth inhibition of human ACHN cells assessed as cell growth at 0.01 uM incubated for 48 hrs by sulforhodamine B assay relative to control; assay type: functional; conditions: read-out: Activity
CCRF-CEM [4] = assay: Growth inhibition of human CCRF-CEM cells assessed as cell growth at 0.1 uM incubated for 48 hrs by sulforhodamine B assay relative to control; assay type: functional; conditions: read-out: Activity
NCI-H322M = assay: Growth inhibition of human NCI-H322M cells assessed as cell growth at 0.1 uM incubated for 48 hrs by sulforhodamine B assay relative to control; assay type: functional; conditions: read-out: Activity
KM12 = assay: Growth inhibition of human KM12 cells assessed as cell growth at 0.1 uM incubated for 48 hrs by sulforhodamine B assay relative to control; assay type: functional; conditions: KM12, 48 h, read-out: Activity
SK-MEL-28 [5] = assay: Growth inhibition of human SK-MEL-28 cells assessed as cell growth at 0.1 uM incubated for 48 hrs by sulforhodamine B assay relative to control; assay type: functional; conditions: SK-MEL-28, 48 h, read-out: Activity
T47D = assay: Growth inhibition of human T47D cells assessed as cell growth at 0.1 uM incubated for 48 hrs by sulforhodamine B assay relative to control; assay type: functional; conditions: read-out: Activity
CCRF-CEM [6] = assay: Growth inhibition of human CCRF-CEM cells assessed as cell growth at 1 uM incubated for 48 hrs by sulforhodamine B assay relative to control; assay type: functional; conditions: read-out: Activity
RPMI-8226 = assay: Growth inhibition of human RPMI8226 cells assessed as cell growth at 1 uM incubated for 48 hrs by sulforhodamine B assay relative to control; assay type: functional; conditions: RPMI-8226, 48 h, read-out: Activity
SK-MEL-2 = assay: Growth inhibition of human SK-MEL-2 cells assessed as cell growth at 1 uM incubated for 48 hrs by sulforhodamine B assay relative to control; assay type: functional; conditions: SK-MEL-2, 48 h, read-out: Activity
CAKI-1 = assay: Growth inhibition of human Caki1 cells assessed as cell growth at 1 uM incubated for 48 hrs by sulforhodamine B assay relative to control; assay type: functional; conditions: CAKI-1, 48 h, read-out: Activity
PC-3 = assay: Growth inhibition of human PC3 cells assessed as cell growth at 1 uM incubated for 48 hrs by sulforhodamine B assay relative to control; assay type: functional; conditions: PC-3, 48 h, read-out: Activity
MDA-MB-231 = assay: Growth inhibition of human MDA-MB-231 cells assessed as cell growth at 1 uM incubated for 48 hrs by sulforhodamine B assay relative to control; assay type: functional; conditions: MDA-MB-231, 48 h, read-out: Activity
OVCAR-3 [7] = assay: Growth inhibition of human OVCAR3 cells assessed as cell growth at 100 uM incubated for 48 hrs by sulforhodamine B assay relative to control; assay type: functional; conditions: OVCAR-3, 48 h, read-out: Activity
BT-549 [8] = assay: Growth inhibition of human BT549 cells assessed as cell growth at 100 uM incubated for 48 hrs by sulforhodamine B assay relative to control; assay type: functional; conditions: BT-549, 48 h, read-out: Activity
[9] = read-out: LC50 (the source's name)
[10] = read-out: pLC50 (the source's name) (converted)

O=C(Nc1cccc(-n2cc(-c3ccncc3)c(-c3cc(O)cc(Cl)c3)n2)c1)c1cc(C(F)(F)F)cc(C(F)(F)F)c1
GI50 (NCI-H23; read-out: GI50): 4.18 µM | LC50 (NCI-H23; read-out: LC50): > 100 µM | TGI (NCI-H23; read-out: TGI): 45.5 µM | GI50 (NCI-H23; read-out: pGI50 (converted)): 4.17 µM | LC50 (NCI-H23; read-out: pLC50 (converted)): > 100 µM | TGI (NCI-H23; read-out: pTGI (converted)): 46.8 µM | GI50 (SF-539; read-out: GI50): 5.01 µM | CC50 (SF-539; [9]): > 100 µM | TGI (SF-539; read-out: TGI): 51.7 µM | GI50 (SF-539; read-out: pGI50 (converted)): 5.01 µM | CC50 (SF-539; [10]): > 100 µM | TGI (SF-539; read-out: pTGI (converted)): 51.3 µM | GI50 (UACC-257; read-out: GI50): 4.23 µM | CC50 (UACC-257; [9]): > 100 µM | TGI (UACC-257; read-out: TGI): 51.2 µM | GI50 (UACC-257; read-out: pGI50 (converted)): 4.27 µM | CC50 (UACC-257; [10]): > 100 µM | TGI (UACC-257; read-out: pTGI (converted)): 51.3 µM | GI50 (OVCAR-8; read-out: GI50): 3.58 µM | CC50 (OVCAR-8; [9]): > 100 µM | TGI (OVCAR-8; read-out: TGI): > 100 µM | GI50 (OVCAR-8; read-out: pGI50 (converted)): 3.55 µM | CC50 (OVCAR-8; [10]): > 100 µM | TGI (OVCAR-8; read-out: pTGI (converted)): > 100 µM | GI50 (NCI/ADR-RES; read-out: GI50): 4.58 µM | CC50 (NCI/ADR-RES; [9]): > 100 µM | TGI (NCI/ADR-RES; read-out: TGI): > 100 µM | GI50 (NCI/ADR-RES; read-out: pGI50 (converted)): 4.57 µM | CC50 (NCI/ADR-RES; [10]): > 100 µM | TGI (NCI/ADR-RES; read-out: pTGI (converted)): > 100 µM | IC50 (UO-31): 2500 nM | GI50 (UO-31; read-out: GI50): 2500 nM | CC50 (UO-31; [9]): > 100 µM | TGI (UO-31; read-out: TGI): > 100 µM | GI50 (UO-31; read-out: pGI50 (converted)): 2510 nM | CC50 (UO-31; [10]): > 100 µM | TGI (UO-31; read-out: pTGI (converted)): > 100 µM | GI50 (DU-145; read-out: GI50): 5.1 µM | CC50 (DU-145; [9]): > 100 µM | TGI (DU-145; read-out: TGI): > 100 µM | GI50 (DU-145; read-out: pGI50 (converted)): 5.25 µM | CC50 (DU-145; [10]): > 100 µM | TGI (DU-145; read-out: pTGI (converted)): > 100 µM | GI50 (BT-549 [1]; read-out: GI50): 4.58 µM | CC50 (BT-549 [1]; [9]): > 100 µM | TGI (BT-549 [1]; read-out: TGI): 48.8 µM | GI50 (BT-549 [1]; read-out: pGI50 (converted)): 4.68 µM | CC50 (BT-549 [1]; [10]): > 100 µM | TGI (BT-549 [1]; read-out: pTGI (converted)): 46.8 µM | growth at 0.01 µM (MOLT-4): 99% | growth at 0.01 µM (NCI-H522): 93% | growth at 0.01 µM (SK-MEL-28 [2]): 99% | growth at 0.01 µM (OVCAR-3 [3]): 102% | growth at 0.01 µM (ACHN): 105% | growth at 0.1 µM (CCRF-CEM [4]): 97% | growth at 0.1 µM (NCI-H322M): 90% | growth at 0.1 µM (KM12): 97% | growth at 0.1 µM (SK-MEL-28 [5]): 103% | growth at 0.1 µM (T47D): 93% | growth at 1 µM (CCRF-CEM [6]): 56% | growth at 1 µM (RPMI-8226): 53% | growth at 1 µM (SK-MEL-2): 106% | growth at 1 µM (CAKI-1): 90% | growth at 1 µM (PC-3): 78% | growth at 1 µM (MDA-MB-231): 70% | growth at 100 µM (OVCAR-3 [7]): -10% | growth at 100 µM (BT-549 [8]): -12%
